The values below come from US20060057230A1, “Tea polyphenols bioavailability enhancement method” (priority 2004, published 2006).

Data set [1] can be described thus: Plasma free catechin pharmacokinetics after oral Polyphenon E, fasting/fed cross-over. The format is in vivo, human. The conditions noted are these: for EGCG AUC / EGCG Cmax: oral Polyphenon E 1200 mg dose level. Here is the method: Study Design. […] Breakfast consisted of one or two 4-oz muffins.
Sample Collection and Processing. […] The total volume of each urine sample was measured.
Tea Polyphenol Concentration Measurements.
This assay employed a gradient of two mobile phases. […] The flow rate was maintained at 1 ml/min.
The distribution of pharmacokinetic parameter data was normalized by logarithmic transformation prior to statistical analyses. The primary analyses were to determine whether the pharmacokinetics of tea catechins are different under fasting/fed states. Pharmacokinetic parameters such as AUC, Cmax, Tmax, half-life, CL/F, Vd/F, and total amount excreted over 24 hr between the fasting and fed conditions were compared by standard cross-over statistical analyses. The pkcross routine in Stata 8.0 (StataCorp 2003) was used. […] A p<0.05 was considered statistically significant. In secondary analysis, EGCG pharmacokinetic parameters such as CL/F, Vd/F, dose normalized AUC, and dose normalized Cmax were compared among different dose levels using one-way analysis of variance followed by post-hoc t-tests corrected for multiple comparisons. For the post-hoc t-test, a p<0.0167 was considered statistically significant.

Data set [2] in a line: Plasma total (free and conjugated) catechin Cmax after β-glucuronidase and sulfatase treatment. The conditions noted are these: for form mostly present in plasma: comparing total and free catechin Cmax.
Experimental: (§1) During the initial clinic visit, study participants completed a medical history form and underwent a brief physical examination. A fasting blood was collected and subjected to a complete blood count with differential leukocyte count and a comprehensive blood chemistry analysis. Eligible subjects were randomly assigned to one of the Polyphenon E doses (400, 800, and 1200 mg, based on EGCG content) and were required to refrain from the ingestion of tea, apples, chocolate, and their products two weeks prior to the first pharmacokinetic study day and until the end of the second pharmacokinetic study day. The night prior to the first pharmacokinetic study day, subjects fasted after midnight except for water. At approximately either 6 am or 9 am on the morning of the first pharmacokinetic study day, each subject was randomly assigned to receive Polyphenon E at the assigned dose level with or without breakfast. Breakfast consisted of one or two 4-oz muffins.
(§2) Study participants had the option of selecting from three varieties of Otis Spunkmeyer® brand muffins: cheese streusel, wild blueberry, and banana nut flavors. The muffins contain 420 to 480 calories each, with 48-60 grams of carbohydrates, 20-24 grams of fat, and 6 grams of protein. Blood samples were collected prior to and at 0.5, 1, 2, 4, 6, 8, 10, and 24 hours after Polyphenon E administration. Urine samples were collected prior to and up to 24 hours (divided into two intervals: 0-8 and 8-24 hours post-dose) after dosing. Following a one-week wash-out period, study subjects fasted overnight and were crossed-over to receive the same dose of Polyphenon E under the other fasting/fed condition.
(§3) Blood samples were collected into Vacutainer tubes containing sodium heparin. Within 30 minutes of collection, tubes were centrifuged for 10 minutes at 2000 rpm. After centrifugation, plasma was mixed with Vc-EDTA solution (0.4 M NaH2PO4 buffer containing 20% ascorbic acid and 0.1% EDTA, pH 3.6) in the volume ratio of 1:0.02 and stored at −80° C. until sample analysis. Urine specimen container was preadded with 1.38 g NaH2PO4, 1 g ascorbic acid, and 5 mg EDTA to prevent degradation of tea catechins. Urine specimen was kept cold by storing the specimen container in a cooler chest with freezer packs during each collection period. The total volume of each urine sample was measured. An aliquot of urine sample was mixed with the Vc-EDTA solution and stored at −80° C. until sample analysis.
(§4) In brief, for determination of free green tea catechins, plasma or urine samples were extracted with ethyl acetate. The ethyl acetate layer was mixed with a small aliquot of 0.1% ascorbic acid before drying by vacuum centrifugation. The dried residue was re-dissolved in 15% acetonitrile and injected onto HPLC. For determination of the total of free and glucuronic acid/sulfate conjugates of tea catechins, plasma or urine samples were mixed with an aliquot of β-glucuronidase and sulfatase in the presence of ascorbate-EDTA solution. Following pre-treatment, the samples were extracted as described above for the free catechins.
(§5) The HPLC system consisted of an ESA Model 465 refrigerated autosampler, an ESA Model 580 two-pump solvent delivery system, an ESA 5500 coulochem electrode array system (CEAS), and a Supelcosil C18 reversed-phase column (150×4.6 mm; particle size, 5 μm; Supelco Inc., Bellefonte, Pa.). The autosampler and column temperatures were maintained at 6° C. and 35° C., respectively. This assay employed a gradient of two mobile phases. Buffer A consisted of 30 mM NaH2PO4 buffer, acetonitrile, and tetrahydrofuran in the volume ratio of 98.13:1.75:0.12 (pH 3.35). Buffer B consisted of 15 mM NaH2PO4 buffer, acetonitrile, and tetrahydrofuran in the volume ratio of 41.5:58.5:12.5 (pH 3.45). The flow rate was maintained at 1 ml/min. The column was eluted with 96% buffer A and 4% buffer B from 0 to 7 min.
For data set [3] the following is noted: in vivo.
Experimental: as §1, §2, §3, §4, §5
A short description of data set [4]: Total catechin recovered in urine over 24 hours after oral Polyphenon E. The format is in vivo, human. The conditions noted are these: following Polyphenon E administration.
Experimental: Blood samples were collected prior to and at 0.5, 1, 2, 4, 6, 8, 10, and 24 hours after Polyphenon E administration. Urine samples were collected prior to and up to 24 hours (divided into two intervals: 0-8 and 8-24 hours post-dose) after dosing.
Sample Collection and Processing. Blood samples were collected into Vacutainer tubes containing sodium heparin. Within 30 minutes of collection, tubes were centrifuged for 10 minutes at 2000 rpm. After centrifugation, plasma was mixed with Vc-EDTA solution (0.4 M NaH2PO4 buffer containing 20% ascorbic acid and 0.1% EDTA, pH 3.6) in the volume ratio of 1:0.02 and stored at −80° C. until sample analysis. Urine specimen container was preadded with 1.38 g NaH2PO4, 1 g ascorbic acid, and 5 mg EDTA to prevent degradation of tea catechins. Urine specimen was kept cold by storing the specimen container in a cooler chest with freezer packs during each collection period. The total volume of each urine sample was measured. […]
The HPLC system consisted of an ESA Model 465 refrigerated autosampler, an ESA Model 580 two-pump solvent delivery system, an ESA 5500 coulochem electrode array system (CEAS), and a Supelcosil C18 reversed-phase column (150×4.6 mm; particle size, 5 μm; Supelco Inc., Bellefonte, Pa.). […] The eluent was monitored by the CEAS with potential settings at −10, 150, 300, and 500 mV. […]
The conditions of data set [5]: rats; cited from earlier work.
For data set [6] the following is noted: mice; cited from earlier work.
The mark [7] stands for this setting: oral Polyphenon E (400 mg EGCG), Fasting.
The mark [8] stands for this setting: oral Polyphenon E (400 mg EGCG), Fed.
Setting [9] is: oral Polyphenon E (800 mg EGCG), Fasting.
[10] abbreviates: oral Polyphenon E (800 mg EGCG), Fed.
Setting [11] is: oral Polyphenon E (1200 mg EGCG), Fasting.
Where [12] appears, read: oral Polyphenon E (1200 mg EGCG), Fed.
The mark [13] stands for this setting: oral Polyphenon E 200 mg (so in the source), Fasting.
Setting [14] is: oral Polyphenon E 200 mg (so in the source), Fed.
Where [15] appears, read: oral Polyphenon E 400 mg, Fasting.
The mark [16] stands for this setting: oral Polyphenon E 800 mg, Fasting.

“And” between values parts separate entries of the source, which are not always exact repeats. Identical values can stand only once. Like-named read-outs stand apart in the source and are kept apart here.

For the compound `Oc1cc(O)c2c(c1)O[C@H](c1ccc(O)c(O)c1)[C@H](O)C2` [EC, epicatechin], in data set [1] (after oral Polyphenon E), the “free catechin levels in plasma samples” value is given as “very low or undetectable”. For the same compound, the “Maximum plasma free catechin concentrations” value in data set [1] (setting [7]) is 5.6 ± 7.8 ng/mL; in data set [1] (setting [8]) it was 1.6 ± 3.9 ng/mL; in data set [1] (setting [9]), 1.92 ± 3.4 ng/mL; in data set [1] (setting [10]), 2.8 ± 5.0 ng/mL; in data set [1] (setting [11]) it was 16.6 ± 30.0 ng/mL; in data set [1] (setting [12]) it was 10.1 ± 15.3 ng/mL. Moreover, in data set [2], the “form mostly present in plasma” value is given as “conjugated forms”.
For the compound `Oc1cc(O)c2c(c1)O[C@H](c1cc(O)c(O)c(O)c1)[C@H](O)C2` [EGC, epigallocatechin], the “form mostly present in plasma” value in data set [3] is reported as “conjugated forms”.
For `O=C(O[C@@H]1Cc2c(O)cc(O)cc2O[C@@H]1c1ccc(O)c(O)c1)c1cc(O)c(O)c(O)c1` [ECG, epicatechin gallate], the Maximum plasma free catechin concentrations in data set [1] (setting [7]) was 87.6 ± 62 ng/mL; in data set [1] (setting [8]) it was 15.7 ± 8.8 ng/mL; in data set [1] (setting [9]), 174 ± 141 ng/mL; in data set [1] (setting [10]), 33.9 ± 11.0 ng/mL; in data set [1] (setting [11]), 383 ± 176 ng/mL; in data set [1] (setting [12]), 112.9 ± 88.2 ng/mL. For the same compound, in data set [4], the “urinary total catechin levels” value is recorded as “very low or undetectable”. In data set [2], the “form mostly present in plasma” value is given as “free form”.
Take `O=C(O[C@@H]1Cc2c(O)cc(O)cc2O[C@@H]1c1cc(O)c(O)c(O)c1)c1cc(O)c(O)c(O)c1` [EGCG, epigallocatechin gallate]: the “AUC of free EGCG” value in data set [1] (setting [13]) was 685.53 ± 394.33^2 min · μg/ml; in data set [1] (setting [14]), 299.40 ± 285.86^2 min · μg/ml; in data set [1] (setting [15]) it was 126.96±47.02 min · μg/ml and 126.96 ± 47.02^2 min · μg/ml; in data set [1] (oral Polyphenon E 400 mg, Fed), 36.70±24.66 min · μg/ml and 36.70 ± 24.66^1 min · μg/ml; in data set [1] (setting [16]), 254.48±214.21 min · μg/ml and 254.48 ± 214.21^2 min · μg/ml; in data set [1] (oral Polyphenon E 800 mg, Fed), 90.89 ± 37.39 µg·min/mL. In addition, the “CL/F of free EGCG” value in data set [1] (setting [13]) was 2.37 ± 1.32^2 L/min; in data set [1] (setting [14]) it was 7.39 ± 4.86 L/min; in data set [1] (setting [15]), 3.64 ± 1.55^2 L/min; in data set [1] (oral Polyphenon E 400 mg, Fed) it was 14.53 ± 7.84 L/min; in data set [1] (setting [16]) it was 4.80 ± 2.69^2 L/min; in data set [1] (oral Polyphenon E 800 mg, Fed) it was 11.63 ± 9.25 L/min. The “Cmax of free EGCG” value was 3371.6 ± 1651.2^2 ng/ml in data set [1] (setting [13]); 923.6 ± 755.3 ng/mL in data set [1] (setting [14]); 798.7±573.1 ng/ml and 798.7 ± 573.1^2 ng/ml in data set [1] (setting [15]); 141.8 ± 89.1 ng/mL in data set [1] (oral Polyphenon E 400 mg, Fed); 1522.4±1357.8 ng/ml and 1522.4 ± 1357.8^2 ng/ml in data set [1] (setting [16]); 294.0 ± 113.5 ng/mL in data set [1] (oral Polyphenon E 800 mg, Fed). The “Tmax of free EGCG” value in data set [1] (setting [13]) was 90.60 ± 28.37^3 min; in data set [1] (setting [14]) it was 175.10 ± 74.58 min; in data set [1] (setting [15]), 93.90 ± 58.99^3 min; in data set [1] (oral Polyphenon E 400 mg, Fed), 122.90 ± 83.70 min; in data set [1] (setting [16]), 83.30 ± 31.04^3 min; in data set [1] (oral Polyphenon E 800 mg, Fed), 154.90 ± 78.31 min. Further, the “t1/2 of free EGCG” value in data set [1] (setting [13]) is on record as 228.4 ± 75.3 min; in data set [1] (setting [14]), 254.9 ± 59.9^4 min; in data set [1] (setting [15]), 170.5 ± 104.6 min; in data set [1] (oral Polyphenon E 400 mg, Fed), 145.2 ± 129.1 min; in data set [1] (setting [16]), 156.5 ± 77.5 min; in data set [1] (oral Polyphenon E 800 mg, Fed), 220.9 ± 209.3 min. The “EGCG AUC” value amounted to 299.40 ± 285.86 µg·min/mL in data set [1] (with food) and 685.53 ± 394.33 µg·min/mL in data set [1] (without food). The figures for the “EGCG Cmax” value in data set [1] (with food) and in data set [1] (without food) were 923.6 ± 755.3 ng/mL and 3371.6 ± 1651.2 ng/mL, respectively. Further, the Maximum plasma free catechin concentrations in data set [1] (setting [7]) is 799 ± 573 ng/mL; in data set [1] (setting [8]), 141.8 ± 89.1 ng/mL; in data set [1] (setting [9]), 1522.4 ± 1357.8^3 ng/ml; in data set [1] (setting [10]), 294.0 ± 113.5 ng/mL; in data set [1] (setting [11]), 3371.6 ± 1651.2^3 ng/ml; in data set [1] (setting [12]) it was 923.6 ± 755.3 ng/mL. Further, the “urinary total catechin levels” value in data set [4] is listed as “very low or undetectable”. Besides, the “oral dose available in the systemic blood” value in data set [5] is recorded as “less than 2%”. In addition, the oral bioavailability in data set [6] is recorded as under 13%. Besides, the “form mostly present in plasma” value in data set [2] is “free form”. Further, the “Maximum plasma total catechin concentrations” value is 754.9 ± 399.9^3 ng/ml in data set [2] (setting [7]); 174.4 ± 80.6 ng/mL in data set [2] (setting [8]); 1622.7 ± 1501.4^3 ng/ml in data set [2] (setting [9]); 360.1 ± 136.9 ng/mL in data set [2] (setting [10]); 3988.4 ± 2068.2^3 ng/ml in data set [2] (setting [11]); 871.9 ± 625.3 ng/mL in data set [2] (setting [12]).
